Measurements published in the METLIN SMRT retention time set (Domingo-Almenara et al. 2019).

Assay: gradient 5% acetonitrile 3 min, to 50% in 2 min, to 85% in 15 min, held 3 min, 100 µL/min
Conditions: column: Zorbax Extend-C18 2.1 x 50 mm; eluents: water / acetonitrile, 0.1% formic acid
Procedure, shortened: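 Using water and acetonitrile that each contained 0.1% formic acid, mixtures of ~100 pure standards were separated at 100 μL/min on a Zorbax Extend-C18 column (2.1 × 50 mm, 1.8 μm). The HPLC fed a quadrupole time-of-flight mass spectrometer working in positive and negative ionization mode, with dead and dwell volumes of 40 μL and 900 μL. Data were acquired over 3 months. Retention time was read from computationally picked adduct peaks after manual inspection of each.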

Row | RP-LC retention time [s] | Structure (SMILES)
1 | 936 | Cc1cccc(Cn2c(CN3CCC(C(=O)NC4CCCCCCC4)CC3)cc3ccccc32)c1
2 | 1150 | Cc1cc(C)n(-c2ccc(SCc3ccccc3Cl)nn2)n1
3 | 1180 | CCOc1ccc(-c2cc3c(=O)n(Cc4nc(-c5ccccc5OCC)no4)ncn3n2)cc1
4 | 711 | CC1CCN(c2nccnc2Oc2ccc(C(=O)N3CCN(c4ccccn4)CC3)cc2)CC1
5 | 781 | CCC(C)NC(=O)c1ccc2c(c1)CCCN2S(=O)(=O)CC (stereo not given)
6 | 1020 | CC(C)(C)c1noc(-c2ccnc(-n3cnc(C(=O)NC4CCCC4)c3)c2)n1
7 | 551 | O=C(CSc1nnc2ccccn12)N1CCOCC1
8 | 840 | Cc1cccc(CNC(=O)c2cc(N(C)C)n3nccc3n2)c1
9 | 592 | CC1CCc2nn(CC(=O)NCCCN(Cc3ccccc3)C(C)C)cc2C1 (stereo not given)
10 | 600 | COc1ccc(-n2c(=O)n(C)c(=O)c3cc(C(=O)NCc4ccccn4)cnc32)cc1
11 | 703 | CCn1cc(-c2ccccc2)cc1C(=O)NCc1ccccn1
12 | 813 | CCc1ccc(S(=O)(=O)N2CCC(c3cc(N)on3)CC2)cc1
13 | 817 | COC(=O)c1cccc(C(=O)Nc2cccc(OC)c2)n1
14 | 819 | O=C(c1cn(-c2ccc(-c3nc(C4CC4)no3)cn2)cn1)N1CCSCC1
15 | 858 | O=S(=O)(c1cccc2nsnc12)N1CCCC(Cc2noc(-c3cnccn3)n2)C1 (stereo not given)
16 | 943 | O=C(C1c2ccccc2CCN1C(=O)C1CC1)N1CCN(c2ccc(F)cc2)CC1 (stereo not given)
17 | 680 | CCN(CC)C(=O)C1CCN(S(=O)(=O)c2ccc3c(c2)NC(=O)CO3)CC1
18 | 814 | O=C(CN1C(=O)C2CCCCN2c2ccc(C(=O)N3CCCC3)cc21)NC1CCCCC1 (stereo not given)
19 | 1040 | COC(=O)c1sccc1NC(=O)N1CCCC1c1noc(COc2ccc(F)cc2)n1 (stereo not given)
20 | 609 | CC(C)C(NC(=O)Nc1ccc2c(c1)OCCO2)C(=O)N1CCc2ccccc21 (stereo not given)
21 | 1130 | O=c1c2sccc2n(Cc2nc(-c3ccccc3)no2)c(=O)n1CCc1ccccc1
22 | 1070 | Cc1c(-c2noc(-c3ccccc3)n2)nnn1-c1ccc(F)cc1

Row | RP-LC retention time [s] | Structure (SMILES)
23 | 785 | CCCn1c(=O)c2c(ncn2C)n(CCC)c1=O
24 | 704 | CN(Cc1nc(Cn2ccn3nc(-c4ccc(F)cc4)cc3c2=O)no1)C1CCCCC1
25 | 747 | O=C(NCC1CC1)C1CCN(c2nc3ccsc3c(=O)n2-c2ccccc2)CC1
26 | 1240 | COc1ccccc1-c1nc(Cn2nnc(-c3nc(-c4ccc(Cl)c(F)c4)no3)c2C)c(C)o1
27 | 634 | O=C1CSCc2nc3ccccc3n21
28 | 616 | CN1CCN(CCNc2ccc(CO)c3sc4ccccc4c(=O)c23)CC1
29 | 583 | CCOc1ccc(C2=NC3(CCN(CC)CC3)NC(c3ccccc3O)C2)cc1 (stereo not given)
30 | 677 | Cc1ccc(-c2noc(CCN3CCN(c4ncccn4)CC3)n2)cc1
31 | 895 | CCN1C(=O)C(C)(C(=O)Nc2ccc(OC)c(Cl)c2)Oc2cccnc21 (stereo not given)
32 | 1180 | O=C(Cc1ccc2c(c1)OCO2)N(CC1CCCO1)c1nc2c(F)cc(F)cc2s1 (stereo not given)
33 | 747 | COc1ccc(C(O)CN2CCN(c3ncccn3)CC2)cc1 (stereo not given)
34 | 835 | CCCNC(=O)Cn1c(=O)cc(-c2nc(C(C)C)no2)c2ccccc21
35 | 589 | CC(C)n1cnc(S(=O)(=O)N2CCC(C(=O)NCc3ccc(N(C)C)cc3)CC2)c1
36 | 637 | Cc1cc(C(=O)N2CCOCC2)nn1CC(=O)NCCc1c[nH]c2ccccc12
37 | 815 | COc1ccc(-c2csc3c(=O)n(Cc4ccccn4)cnc23)cc1
38 | 891 | COc1ccc(OC)c2[nH]c(C(=O)N[C@H](C(=O)O)c3ccccc3)cc12
39 | 661 | Cc1occc1C(=O)N1CC(c2nc(CCN(C)C(=O)C3CC3)no2)C1
40 | 1070 | Cc1cc(C)cc(C(=O)Nc2cccn3nc(C4CCC4)nc23)c1
41 | 1030 | CC(C)c1cc(C(=O)Nc2cccc(C#N)c2)nc2ccnn12
42 | 775 | CC(=O)Nc1ccc(S(=O)(=O)N2CCc3c(c(-c4nnc(-c5ccccc5)o4)nn3C)C2)cc1
43 | 738 | CC(C)(C)c1ccc(C(=O)N2CCN=C2N2CCCC2)cc1
44 | 1030 | CCCn1cc2c3c(cccc31)CN(C(=O)COc1ccc(F)cc1)CC2

Row | RP-LC retention time [s] | Structure (SMILES)
45 | 1030 | Cc1nnc2ccc(-c3noc(-c4ccc(Br)cc4)n3)cn12
46 | 754 | CCN(Cc1ccccc1)C(=O)c1c(C)sc2ccn(CC)c(=O)c12
47 | 885 | Brc1ccc(OCc2nn3c(-c4cccnc4)nnc3s2)cc1
48 | 766 | CC1Oc2ccc(-c3csc(NC(=O)c4ccncc4)n3)cc2N(C)C1=O (stereo not given)
49 | 717 | CC(C)c1nc(C2CN(C(=O)Nc3cc(F)cc(F)c3)C2)n(C)n1
50 | 763 | CCc1noc(NC(C)=O)c1-c1ccc(OC)c(S(=O)(=O)Nc2ccccc2F)c1
51 | 1230 | COc1ccc(-c2nnc(-c3ccc(Cl)c(S(=O)(=O)N4CCC(C)CC4)c3)o2)cc1
52 | 938 | Cc1ccc(-c2cn3c(CC(=O)NC4CCC(C)CC4)csc3n2)cc1C (stereo not given)
53 | 639 | COc1ccc(NC(=O)Cn2nc3nc(N4CCSCC4)ccn3c2=O)cc1OC
54 | 743 | Cc1cc2[nH]c(C(=O)Nc3ccc(F)c(F)c3F)c(CN3CCOCC3)c2s1
55 | 738 | O=C(N[C@H](Cc1ccccc1)C(=O)NCc1cscn1)c1ccccc1
56 | 945 | C=CCn1c(C)c(CC(=O)Nc2ccc(F)cc2)c(=O)n2nc(-c3ccc(C)cc3)nc12
57 | 693 | Cc1noc(-c2ccnc(-n3ncc(C(=O)N4CCOCC4)c3C)c2)n1
58 | 913 | Cc1cc(C)cc(NC(=O)Cn2c(=O)nc(N3CCCC(C)C3)c3ccccc32)c1 (stereo not given)
59 | 856 | CC(=O)Oc1ccc2ccc(=O)oc2c1OC(C)=O
60 | 848 | O=C(NCc1ccccc1)N1CCc2nc(-c3ccccc3)ncc2C1
61 | 672 | CNC(=O)c1cc[nH]c1C1CCCN(C(=O)C2CC=CCC2)C1 (stereo not given)
62 | 896 | COc1cccc(CNc2cc(-n3nc(C)cc3C)ncn2)c1
63 | 608 | O=C(Nc1ccccc1C(=O)NCCCN1CCN(C2CCCCC2)CC1)C1=CSCCO1
64 | 1180 | CCCN1C(=O)COc2cc(-c3noc(C(=O)NCCC4=CCCCC4)n3)ccc21
65 | 655 | Cn1cc(-c2ccncc2)cc1C(=O)NCc1ccccc1Br
66 | 638 | O=C(OC1C[C@@H]2CC3C[C@@H](C1)N2CC3=O)c1c[nH]c2ccccc12 (stereo not given in full)

Row | RP-LC retention time [s] | Structure (SMILES)
67 | 644 | COC(=O)c1ccc(Cl)cc1NC(=O)N1CCc2nc[nH]c2C1
68 | 920 | CC(C)CNC(=O)CN1c2ccc(F)cc2-c2ccccc2S1(=O)=O
69 | 877 | CCNC(=O)NC1CCN(c2nc3cccnc3n(Cc3ccccc3)c2=O)CC1
70 | 1010 | Fc1ccc(-c2nnc(Cc3nc(-c4ccccc4F)no3)o2)cc1
71 | 799 | Cc1cc(C)c(NC(=O)C2CCCN2S(=O)(=O)c2cc3c(cc2C)NC(=O)CO3)c(C)c1 (stereo not given)
72 | 702 | COc1ccc(Cn2c(CO)cnc2SCC(=O)N2CCCc3ccccc32)cc1
73 | 1000 | CSc1ccccc1NC(=O)CCCn1cccc1
74 | 1040 | Cc1ccccc1Nc1c(-c2ccccc2O)nc2ccc(Cl)cn12
75 | 996 | CCN(CC)S(=O)(=O)c1ccc2c(c1)N(CC(=O)N1CCCCCC1)C(=O)C1CCCCN21 (stereo not given)
76 | 651 | COCCCNC(=O)C1CCN(C(=O)c2ncn3c2COC(c2ccc(OC)cc2)C3)CC1 (stereo not given)
77 | 682 | O=C(c1ccccc1[N+](=O)[O-])N1CCN(Cc2nc(-c3ccco3)cs2)CC1
78 | 980 | Cc1ccc(-c2cc3c4nn(CC(=O)NC5CCCCC5)c(=O)n4ccn3n2)cc1C
79 | 662 | COC(=O)Nc1ccc(CC(=O)NCc2cccs2)cc1
80 | 822 | O=C(NCc1ccco1)c1cc2c(=O)n(Cc3ccccc3)ccc2s1
81 | 850 | CN1C(=O)c2cc(C(=O)NCc3ccc(Cl)cc3)nn2CC1(C)C(=O)NC1CCCCC1 (stereo not given)
82 | 593 | Cc1noc([C@@H]2CN(C(=O)Cc3c(C)noc3C)C[C@H]2C(N)=O)n1
83 | 637 | Cc1cc(N2CCN(C(=O)COc3ccc(Cl)cc3)CC2)nc2nnc(C)n12
84 | 618 | Cc1cnc(C)n1CC1CCN(S(=O)(=O)Cc2ccccc2)C1 (stereo not given)
85 | 1240 | CCCCC1CCC(C(=O)Nc2nc(-c3ccc4c(c3)NC(=O)CO4)c(C)s2)CC1 (stereo not given)
86 | 561 | CC(C)C(=O)Nc1ccc2nc(N3CCN(CC(=O)N4CCCC4)CC3)cc(C(=O)O)c2c1
87 | 685 | CNC(=O)c1ccc(-c2nc3cc(NS(=O)(=O)c4ccc5c(c4)CCCC5)ccc3n2C)cc1
88 | 590 | Cc1ccc(CN2CCC[C@H]2c2nc(C3CCOCC3)n[nH]2)c(C)c1

Row | Structure (SMILES) | RP-LC retention time [s]
89 | Cn1cc(C(=O)NCc2ccc3c(c2)OCO3)c2cccnc21 | 706
90 | COc1ccc2c(c1)C1(CCN(S(=O)(=O)c3cc(F)cc(F)c3)C1)C(=O)N2 (stereo not given) | 872
